The subject of series [1] is Plasmodium falciparum. Put plainly: Antimalarial activity against Plasmodium falciparum 3D7 infected in erythrocytes assessed as parasite growth inhibition incubated for 42 hrs by [3H]-hypoxanthine incorporation assay. The class given is functional, organism-based. The settings on record: 3D7, Erythrocyte.
The test system of series [2] is Plasmodium falciparum. Put plainly: Antiplasmodial activity against CQ-sensitive Plasmodium falciparum NF54. The class given is functional, organism-based.
A short description of series [3]: Cytotoxicity against African green monkey Vero cells. The note with it: chlorocebus sabaeus. The class given is toxicity, cell-based.
Series [4] deals with Plasmodium falciparum. Put plainly: Antiplasmodial activity against CQ-sensitive Plasmodium falciparum F32 Tanzania assessed as parasite growth inhibition incubated for 48 hrs. The class given is functional, organism-based.
Series [5] concerns Plasmodium falciparum. Put plainly: Antiplasmodial activity against Plasmodium falciparum 3D7 at asexual erythrocytic stage infected in human erythrocytes assessed as parasite growth inhibition incubated for 42 hrs by [3H]-hypoxanthine incorporation assay. The class given is functional, organism-based. The settings on record: 3D7, Erythrocyte.
For series [6], the system named is Plasmodium falciparum. Description: Antimalarial activity against CQ-resistant Plasmodium falciparum Dd2. The class given is functional, organism-based.
Series [7] is described as follows: Cytotoxicity against human erythrocytes. The class given is toxicity, cell-based, Erythrocyte.
Series [8] concerns Plasmodium falciparum. Put plainly: Antimalarial activity against Plasmodium falciparum […] incubated for 48 hrs. The class given is functional, organism-based.
For series [9], the system named is Plasmodium falciparum. Description: Antimalarial activity against Plasmodium falciparum 3D7 at asexual erythrocytic stage assessed as parasite growth inhibition measured after 24 hrs by [3H]-hypoxanthine incorporation assay. The class given is functional, organism-based.
Series [10] deals with Plasmodium falciparum. Description: Antimalarial activity against CQ-resistant Plasmodium falciparum K1. The class given is functional, organism-based.
The test system of series [11] is Plasmodium falciparum. Put plainly: Antimalarial activity against Plasmodium falciparum 3D7 assessed as inhibition of parasitemia incubated for 72 hrs by fluorescence based assay. The class given is functional, organism-based. The note with it: 3D7, 72 h.

Values after ≈ are worked out from the molar mass of the structure shown. Some results are limits rather than exact numbers.

On to `COc1ccc2cc3[n+](cc2c1OCc1cn(-c2ccc(S(=O)(=O)N4CCCCC4)cc2)nn1)CCc1cc2c(cc1-3)OCO2.[Cl-]`, for which the half-maximal inhibitory concentration (IC50) – broadly, the concentration that inhibits the measured activity by half – in the series with Plasmodium falciparum [1] was determined as 0.8 µg/mL.
As for `CC1(C)[C@@H](O)CC[C@]2(C)[C@H]3C(=O)C=C4[C@@H]5C[C@@](C)(C(=O)OCc6cn(-c7ccc(O)cc7[N+](=O)[O-])nn6)CC[C@]5(C)CC[C@@]4(C)[C@]3(C)CC[C@@H]12`, in the series with Plasmodium falciparum [2], the midpoint of inhibition, the IC50, lay at 0.47 µM. In addition, the half-maximal cytotoxic concentration (CC50) (commonly the concentration at which the toxic effect on the cells reaches its halfway point) in [3] amounted to 253 µM.
`NC1=C(n2cc(COC3=CC(=O)c4ccccc4C3=O)nn2)C(=O)c2ccccc2C1=O`: the concentration for half-maximal inhibition (IC50) in the series with Plasmodium falciparum [4] was > 20 µM.
The same measure, in the same setting: next, `O=C1C=C(OCc2cn(C3=CC(=O)c4ccccc4C3=O)nn2)C(=O)c2ccccc21`: 1.9 µM.
For the compound `NS(=O)(=O)c1ccc(-n2cc(COc3ccc(F)cc3)nn2)cc1`, the concentration for half-maximal inhibition (IC50) in the series on Plasmodium falciparum [5] amounted to 15.4 µg/mL (≈ 44.2 µM).
Compound `O=[N+]([O-])c1cccc(Cn2cc(CO)nn2)c1` registered a concentration for half-maximal inhibition (IC50) with Plasmodium falciparum [6] of 0.64 µg/mL (≈ 2.73 µM). Besides, half-maximal cytotoxicity in [7] (CC50) was put at 87.4 µg/mL (≈ 373 µM).
As to `CC(=O)c1ccc(-n2cc(COC(=O)[C@@]3(C)CC[C@]4(C)CC[C@]5(C)C(=CC(=O)[C@@H]6[C@@]7(C)CC[C@H](O)C(C)(C)[C@@H]7CC[C@]65C)[C@@H]4C3)nn2)cc1`, the half-maximal inhibitory concentration (IC50) in the series with Plasmodium falciparum [2] is > 10 µM. In series [3], the 50% cytotoxic concentration (CC50) stood at 226 µM.
In the series on Plasmodium falciparum [8], `COc1ccc(-c2cc(-c3c(C)nn(-c4ccccc4)c3-n3cncn3)n3c(n2)nc2ccccc23)cc1` yielded an IC50 of 1.45 µg/mL (≈ 2.91 µM).
In the case of `Cc1cc(=O)oc2cc(OCc3cn(-c4ccc(S(N)(=O)=O)cc4)nn3)ccc12`, the IC50 in the series on Plasmodium falciparum [9] was 3.64 µM.
For `Cc1cc(C)nc(NS(=O)(=O)c2ccc(-n3cc(COc4cc5oc(=O)cc(C)c5cc4Cl)nn3)cc2)n1`, the IC50 with Plasmodium falciparum [9] was found to be 18.1 µM.
As to `O=C1[C@@H](Oc2ccc(Cl)cc2Cl)[C@@H](c2ccc(OCc3cn(Cc4ccccc4)nn3)cc2)N1c1ccc(OCc2cn(Cc3ccccc3)nn2)cc1`, the IC50 in the series with Plasmodium falciparum [10] is < 0.97 µM.
For `O=S(=O)(c1ccc(-n2cc(COc3ccccc3)nn2)cc1)N1CCCCC1`, in the series on Plasmodium falciparum [5], the half-maximal inhibitory concentration (IC50) was > 50 µg/mL.
For `O=c1ccc2ccc(OCc3cn(-c4ccc(S(=O)(=O)N5CCOCC5)cc4)nn3)cc2o1`, the half-maximal inhibitory concentration (IC50) in the series with Plasmodium falciparum [9] is > 85.5 µM.
For the compound `Cc1c(-c2ccccc2)c2ccc(OCc3cn(-c4ccc(S(N)(=O)=O)cc4)nn3)cc2oc1=O`, the IC50 with Plasmodium falciparum [9] came to 3.68 µM.
As to `O=[N+]([O-])c1ccc(Cn2cc(-c3ccccc3CO)nn2)cc1`, the IC50 in the series on Plasmodium falciparum [6] was > 100 µg/mL. This compound also came in with a cytotoxic concentration (CC50) in series [7] of 33.3 µg/mL (≈ 107 µM).
Regarding `O=C1[C@@H](Oc2ccccc2)[C@@H](c2ccc(OCc3cn(Cc4ccccc4)nn3)cc2)N1c1ccc(OCc2cn(Cc3ccccc3)nn2)cc1`, the IC50 with Plasmodium falciparum [10] is < 0.97 µM.
With `CC(=O)c1cccc(-n2cc(COC(=O)[C@@]3(C)CC[C@]4(C)CC[C@]5(C)C(=CC(=O)[C@@H]6[C@@]7(C)CC[C@H](O)C(C)(C)[C@@H]7CC[C@]65C)[C@@H]4C3)nn2)c1`, in the series on Plasmodium falciparum [2], the IC50 is 3.5 µM. Also, the CC50 in series [3] stood at 213 µM.
As to `CCOC(=O)c1cn(-c2ccccc2)nn1`, the IC50 with Plasmodium falciparum [11] is 12.8 µM.
Consider `O=C1C=C(OCc2cn(-c3ccc(CO)cc3)nn2)C(=O)c2ccccc21`, for which the 50% inhibitory concentration (IC50) with Plasmodium falciparum [4] is 9.7 µM.
Consider `O=c1cc(OCc2cn(-c3ccc(S(=O)(=O)N4CCOCC4)cc3)nn2)c2ccccc2o1`, for which the IC50 in the series with Plasmodium falciparum [9] was 34.2 µM.
On to `COc1ccc2cc3[n+](cc2c1OCc1cn(-c2ccc(S(=O)(=O)N4CCN(C)CC4)cc2)nn1)CCc1cc2c(cc1-3)OCO2.[Cl-]`, for which the concentration for half-maximal inhibition (IC50) in the series with Plasmodium falciparum [1] was 0.8 µg/mL.
For `COc1ccc2cc3[n+](cc2c1OCc1cn(-c2ccc(S(=O)(=O)N4CCN(c5ccccn5)CC4)cc2)nn1)CCc1cc2c(cc1-3)OCO2.[Cl-]`, the IC50 in the series with Plasmodium falciparum [1] came to 1 µg/mL.
On to `OCc1cn(Cc2ccc(Cl)cc2)nn1`, for which, in the series on Plasmodium falciparum [6], the IC50 was 22.1 µg/mL (≈ 98.9 µM). In addition, in series [7], the CC50 worked out at 88.6 µg/mL (≈ 396 µM).
As to `O=C1C=C(OCc2cn(-c3ccc(S)cc3)nn2)C(=O)c2ccccc21`, the IC50 with Plasmodium falciparum [4] is > 20 µM.
Turning to `Cc1nn(-c2ccccc2)c(-n2cncn2)c1-c1cc(-c2ccccc2)nc2nc3ccccc3n12`, the IC50 in the series on Plasmodium falciparum [8] is 1.45 µg/mL (≈ 3.09 µM).
With `Br.O=[N+]([O-])c1ccc(Cn2cc(-c3ccccc3C[P+](c3ccccc3)(c3ccccc3)c3ccccc3)nn2)cc1`, in the series with Plasmodium falciparum [6], the IC50 is > 100 µg/mL. The CC50 in series [7] was > 100 µg/mL.
`O=[N+]([O-])c1ccc(Cn2cc(CO)nn2)cc1`: in the series with Plasmodium falciparum [6], the IC50 stood at 0.62 µg/mL (≈ 2.65 µM). Moreover, the CC50 in series [7] is > 100 µg/mL.
Take `O=C(OCc1cnn(-c2ccccc2)n1)c1ccccc1`: in the series on Plasmodium falciparum [11], the IC50 is 27.5 µM.
For `CCCCCCCCCCCn1cc(COC2=CC(=O)c3ccccc3C2=O)nn1`, the concentration for half-maximal inhibition (IC50) in the series on Plasmodium falciparum [4] turned out to be 17 µM.
Turning to `COc1ccc2cc3[n+](cc2c1OCc1cn(-c2ccc(S(=O)(=O)Nc4ccc([N+](=O)[O-])cc4)cc2)nn1)CCc1cc2c(cc1-3)OCO2.Cl`, the IC50 with Plasmodium falciparum [1] turned out to be 20 µg/mL.
